This passage reports KM results from PMC10319855, “Unravelling the hidden power of esterases for biomanufacturing of short-chain esters” (Scientific Reports, 2023).

What all share (settings): crude E. coli lysate 70 µg/mL protein, 0.1 M Na-phosphate pH 7, 37 °C
Experiment [1] concerns the target EEB1 (Saccharomyces cerevisiae, UniProt Q02891).
In experiment [2] the target is T1, tEstA (Pseudomonas aeruginosa, UniProt O33407).
T1 construct: gene estA; crude lysate
Briefly: p-nitrophenol release, absorbance […] nm. The class given is biochemical.

Experiment [3] concerns the target T2, AcAlT (Komagataella phaffii, UniProt C4QX24).
T2 construct: gene PAS_chr1-1_0419; codon-optimized gene in pET15b (pAPS07), E. coli BL21-DE3 strain SSL26; crude lysate
T2 sequence (C4QX24 1-452): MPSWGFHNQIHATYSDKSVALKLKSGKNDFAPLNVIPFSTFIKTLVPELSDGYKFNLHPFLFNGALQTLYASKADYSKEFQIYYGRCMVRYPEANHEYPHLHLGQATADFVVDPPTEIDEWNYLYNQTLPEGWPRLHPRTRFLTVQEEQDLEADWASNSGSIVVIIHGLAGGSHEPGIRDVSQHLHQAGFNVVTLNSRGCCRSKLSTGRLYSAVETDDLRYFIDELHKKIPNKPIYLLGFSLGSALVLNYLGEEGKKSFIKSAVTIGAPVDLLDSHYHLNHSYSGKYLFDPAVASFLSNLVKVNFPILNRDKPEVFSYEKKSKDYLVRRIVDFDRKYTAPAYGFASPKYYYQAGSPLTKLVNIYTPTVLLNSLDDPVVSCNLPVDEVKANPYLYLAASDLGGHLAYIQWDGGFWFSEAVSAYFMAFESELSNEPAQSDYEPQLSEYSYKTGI
Nature of the experiment: p-nitrophenol release, absorbance […] nm. In kind it is biochemical.

The target in experiment [4] is T3, CE (Brettanomyces bruxellensis, UniProt A0A7D9GZZ0).
T3 construct: gene DEBR0S1_34310G; crude lysate
Briefly: p-nitrophenol release, absorbance […] nm. The class given is biochemical.

T3 sequence (A0A7D9GZZ0 entry or part of it): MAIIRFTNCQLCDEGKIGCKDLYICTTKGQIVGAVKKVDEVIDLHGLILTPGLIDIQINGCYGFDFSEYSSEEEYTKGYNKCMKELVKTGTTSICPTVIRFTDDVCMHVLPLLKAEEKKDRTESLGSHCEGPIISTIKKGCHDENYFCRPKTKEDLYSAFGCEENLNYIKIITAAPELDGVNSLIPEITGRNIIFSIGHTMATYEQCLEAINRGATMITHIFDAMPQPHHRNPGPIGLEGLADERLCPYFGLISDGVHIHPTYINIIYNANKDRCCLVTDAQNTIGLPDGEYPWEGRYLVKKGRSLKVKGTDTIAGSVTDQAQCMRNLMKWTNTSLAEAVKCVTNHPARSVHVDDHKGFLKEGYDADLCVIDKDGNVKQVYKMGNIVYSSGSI
T1 sequence (O33407 25-646): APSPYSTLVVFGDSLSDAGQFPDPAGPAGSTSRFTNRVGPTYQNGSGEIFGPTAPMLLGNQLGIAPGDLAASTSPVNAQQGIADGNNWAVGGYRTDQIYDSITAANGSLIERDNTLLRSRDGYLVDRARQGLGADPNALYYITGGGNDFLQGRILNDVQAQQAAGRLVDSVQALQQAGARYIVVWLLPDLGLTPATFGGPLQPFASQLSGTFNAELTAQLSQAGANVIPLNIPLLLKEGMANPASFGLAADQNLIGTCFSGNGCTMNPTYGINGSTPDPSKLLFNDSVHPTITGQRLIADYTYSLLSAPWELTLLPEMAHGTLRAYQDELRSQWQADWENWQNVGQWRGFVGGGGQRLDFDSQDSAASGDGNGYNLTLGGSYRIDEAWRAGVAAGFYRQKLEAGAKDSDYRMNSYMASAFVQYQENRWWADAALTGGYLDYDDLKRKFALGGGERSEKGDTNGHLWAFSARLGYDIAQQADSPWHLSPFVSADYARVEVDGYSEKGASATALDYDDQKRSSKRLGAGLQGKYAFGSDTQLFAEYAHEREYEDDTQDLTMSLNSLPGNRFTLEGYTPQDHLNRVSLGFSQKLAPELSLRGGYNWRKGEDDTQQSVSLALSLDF
EEB1, sequence (Q02891 whole entry): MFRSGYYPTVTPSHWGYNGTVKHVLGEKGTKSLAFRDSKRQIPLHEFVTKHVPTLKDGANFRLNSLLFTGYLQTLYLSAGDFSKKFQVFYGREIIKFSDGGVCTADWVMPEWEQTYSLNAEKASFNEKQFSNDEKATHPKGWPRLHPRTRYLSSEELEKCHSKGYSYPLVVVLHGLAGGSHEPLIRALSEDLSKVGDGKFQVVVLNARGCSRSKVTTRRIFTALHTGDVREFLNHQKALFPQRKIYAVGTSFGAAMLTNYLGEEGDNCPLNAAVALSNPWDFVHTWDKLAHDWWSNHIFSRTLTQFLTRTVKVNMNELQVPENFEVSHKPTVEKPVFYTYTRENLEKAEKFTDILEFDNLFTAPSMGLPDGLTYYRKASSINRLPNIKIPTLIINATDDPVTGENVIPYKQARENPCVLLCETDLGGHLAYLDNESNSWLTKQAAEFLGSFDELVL

For the compound `CC(=O)Oc1ccc([N+](=O)[O-])cc1` [p-nitrophenyl acetate], the KM result in experiment [1] is “KM values revealed that EEB1 exhibited the highest catalytic efficiency for pNPA hydrolysis”; in experiment [2], “CE and tEstA, on the other hand, indicated relatively moderate hydrolysis activity with higher KM”; in experiment [3], “AcAlT, despite being acyltransferase, showed the second highest efficiency and relatively lower KM”; in experiment [4] it was “CE and tEstA, on the other hand, indicated relatively moderate hydrolysis activity with higher KM”.
